According to US20220304945A1, “METHODS OF TREATING METABOLIC SYNDROME RELATED CONDITIONS USING RETINOIC ACID RECEPTOR AGONISTS” (Cornell University, priority 2014, published 2022):

System: mouse ES cells (RARβ, Cyp26a1 transcripts)
Assay: RT-PCR of RA-responsive genes in WT and RARβ KO ES cells
Type: cell-based
Settings: WT ES cells, presence of RA vs untreated
Protocol: C57BL/6 RARβ heterozygous mice were provided by Dr. Pierre Chambon (Strasbourg-Cedex, France) (26). Homozygous RARβ-null mice were obtained following mating of RARβ heterozygous mice. Blastocysts were harvested on day E3.5 and individually cultured on ES cell medium as previously described (28).
Various markers for endodermal (day 5), pancreatic progenitor (day 11), endocrine progenitor (day 14) and endocrine (day 17) differentiation were analyzed by semi-quantitative RT-PCR in J1 wild-type and RARβ KO ESCs. Primers were designed around introns whenever possible. Total RNA extraction, semi-quantitative and quantitative PCR reactions were performed as previously described (18). Amplified PCR products were resolved on 1.5% agarose gels and visualized by staining with ethidium bromide. PCR bands were sequenced for verification of the correct amplicon. Quantitation of semi-quantitative gels was performed using ImageJ software (National Institutes of Health) from three experimental biological repeats.

With `CC1=C(/C=C/C(C)=C/C=C/C(C)=C/C(=O)O)C(C)(C)CCC1` [RA, all trans-retinoic acid] the “RARβ signal (RT-PCR)” value was “stronger RARβ signal”.

Same assay, conditions: WT and RARβ KO ES cells, RA-treated

With `CC1=C(/C=C/C(C)=C/C=C/C(C)=C/C(=O)O)C(C)(C)CCC1` [RA, all trans-retinoic acid] the “Cyp26a1 expression (RT-PCR)” value was “observed in both WT and RARβ KO ES cells”.

Biological target: T1, RARβ2 (Homo sapiens, UniProt P10826)
T1 sequence (P10826 1-448 isoform P10826-2): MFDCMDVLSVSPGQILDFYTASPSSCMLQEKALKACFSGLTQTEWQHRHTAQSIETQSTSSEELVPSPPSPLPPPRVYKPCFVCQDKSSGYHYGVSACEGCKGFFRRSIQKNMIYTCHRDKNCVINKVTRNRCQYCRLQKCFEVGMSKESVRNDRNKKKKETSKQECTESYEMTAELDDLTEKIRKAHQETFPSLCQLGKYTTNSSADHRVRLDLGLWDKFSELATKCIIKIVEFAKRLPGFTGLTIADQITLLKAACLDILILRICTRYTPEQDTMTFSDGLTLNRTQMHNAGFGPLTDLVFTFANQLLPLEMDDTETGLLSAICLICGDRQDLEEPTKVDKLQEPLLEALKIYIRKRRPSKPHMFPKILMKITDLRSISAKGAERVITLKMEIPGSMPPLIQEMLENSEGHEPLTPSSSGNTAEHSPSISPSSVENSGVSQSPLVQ
Assay: not given
Set-up: expressed in transfected cells
Settings: from Table 1 and Table 2 of WO2007/009083; cited from earlier work

In order of falling “% Eff.” value:
1. CCCCCCCCCc1ccc(-c2ccc(C(=O)O)cc2)cc1 [Compound 2]  126%
2. CCCCOCCOc1ccc(-c2ccc(C(=O)O)cc2)cc1 [Compound 18]  108%
3. Cc1sc(-c2ccc(C(=O)O)cc2)nc1OCC(=O)NC1CCCCCC1 [Compound 56]  105%
4. CCCCCCCCc1ccc(-c2ccc(C(=O)O)cc2)cc1 [Compound 6]  104%
5. CCCCCCCCc1ccc(-c2ccc(C(=O)O)cc2)cc1 [Compound 53]  99%
6. CCCCCCCCCCOc1ccc(-c2ccc(C(=O)O)cc2)cc1 [Compound 20]  98%
7. CCCOCCOc1nc(-c2ccc(C(=O)O)cc2)sc1C [Compound 33]  98%
8. CCCCOCCOc1nc(-c2ccc(C(=O)O)cc2)sc1C [Compound 27]  95%
9. CCCCCCNC(=O)COc1nc(-c2ccc(C(=O)O)cc2)sc1C [Compound 13]  85%
10. CCCCCCCCN1CCN(c2ccc(C(=O)O)cc2)CC1 [Compound 50]  85%
11. CCCCCCCCc1ccc(-c2ccc(C(=O)O)c(C)c2)cc1 [Compound 55]  84%
12. CCCCCCCCc1ccc(-c2ccc(C(=O)O)cc2)cc1 [Compound 35]  83%
13. CCCCCCCCc1ccc(-c2ccc(C(=O)C(=O)O)cc2)cc1 [Compound 31]  80%
14. CCCCCCCCc1ccc(-c2ccc(C(=O)n3ccnc3)cc2)cc1 [Compound 8]  79%
15. CCCCCCOc1cc(C)c(-c2ccc(C(=O)O)cc2)cc1C [Compound 11]  78%
16. CCCCCCCCc1ccc(-c2ccc(C(=O)Nc3ccc(C)cn3)cc2)cc1 [Compound 29]  78%
17. CCCCCCCc1ccc(-c2ccc(C(=O)NN)cc2)cc1 [Compound 45]  78%
18. Cc1sc(-c2ccc(C(=O)O)cc2)nc1OCC(=O)NC(C)CCC(C)C (stereo not drawn) [Compound 57]  77%
19. CCCCCCCc1ccc(-c2ccc(C(=O)O)cc2)cc1 [Compound 9]  76%
20. CCCCCCCCc1ccc(-c2ccc(C(=O)n3cnc(NC(C)=O)n3)cc2)cc1 [Compound 15]  76%
21. CCCCCCOc1ccc(-c2ccc(C(=O)O)cc2)cc1 [Compound 12]  72%
22. CCCCCCCCOc1ccc(-c2ccc(C(=O)O)cc2)cc1 [Compound 32]  70%
23. CCCCCCCCc1ccc(-c2ccc(C(=O)O)cc2F)cc1 [Compound 38]  70%
24. Cc1sc(-c2ccc(C(=O)O)cc2)nc1OCC(=O)NC1CCC(C)CC1 (stereo not drawn) [Compound 58]  66%
25. CC(C)CCCCOc1ccc(-c2ccc(C(=O)O)cc2)cc1 [Compound 25]  65%
26. CCCCCCCc1ccc(-c2ccc(C(=O)O)cc2)cc1 [Compound 10]  64%
27. CCCC1CCCC(c2ccc(-c3ccc(C(=O)O)cc3)cc2)CC1 (stereo not drawn) [Compound 49]  59%
28. CCCCCCCCOc1ccc(-c2ccc(C(=O)NCCC#N)cc2)cc1 [Compound 51]  59%
29. CCCCCCCOc1ccc(-c2ccc(C(=O)O)cc2)cc1 [Compound 24]  58%
30. O=C(O)c1ccc(-c2ccc(OCCC=C(C3CC3)C3CC3)cc2)cc1 [Compound 47]  58%
31. CCCCC(CC)COc1nc(-c2ccc(C(=O)O)cc2)sc1C (stereo not drawn) [Compound 46]  54%
32. CCCCCCCCc1ccc(-c2ccc(C(=O)NS(C)(=O)=O)cc2)cc1 [Compound 60]  51%
33. CCCCCCCc1ccc(-c2ccc(C(=O)NO)cc2)cc1 [Compound 37]  49%
34. CCCCCCCc1ccc(-c2ccc(C(=O)O)c(C)c2)cc1 [Compound 52]  45%
35. CCCCCc1ccc(-c2ccc(C(=O)O)cc2)cc1 [Compound 4]  44%
36. CCCCCCCc1ccc(-c2ccc(C(=O)O)c(F)c2)cc1 [Compound 36]  42%
37. CCCCOCCOc1cc(C)c(-c2ccc(C(=O)O)cc2)cc1C [Compound 44]  41%
38. CCCCCCCCOc1ccc(-c2ccc(C(=O)NCCc3ccccn3)cc2)cc1 [Compound 54]  39%
39. Cc1sc(-c2ccc(C(=O)O)cc2)nc1OCC(=O)NC1CCCC1 [Compound 61]  39%
40. CCCCCCc1ccc(-c2ccc(C(=O)O)cc2)cc1 [Compound 16]  37%
41. CCCCNC(=O)COc1nc(-c2ccc(C(=O)O)cc2)sc1C [Compound 62]  37%
42. CCCCCCCc1ccc(-c2ccc(C(=O)O)cc2F)cc1 [Compound 22]  36%
43. CCCCc1ccc(-c2ccc(C(=O)O)cc2)cc1 [Compound 26]  36%
44. CCCCCCc1ccc(-c2ccc(C(=O)Nc3ccc(C)cn3)cc2)cc1 [Compound 63]  36%
45. CCCCCCCc1ccc(-c2ccc(C(=O)NCCc3ccccn3)cc2)cc1 [Compound 59]  35%

In order of rising pEC50:
1. CCCCCCCc1ccc(-c2ccc(C(=O)O)c(C)c2)cc1 [Compound 52]  6.41
2. CCCCCCCCc1ccc(-c2ccc(C(=O)O)cc2F)cc1 [Compound 38]  6.81
3. CCCCc1ccc(-c2ccc(C(=O)O)cc2)cc1 [Compound 26]  7.15
4. CCCCCCCCc1ccc(-c2ccc(C(=O)n3ccnc3)cc2)cc1 [Compound 8]  7.66
